Test results reported in US9199939B2, “Quinoline amide M1 receptor positive allosteric modulators” (Merck Sharp & Dohme Corp., priority 2009, dated 2015).
pEC50: −log10 of the molar value. Read-outs that look alike come from different tables or passages of the source.

Target: T1, acetylcholine muscarinic M1 receptor (Homo sapiens, UniProt P11229)
T1 construct: expressed in transfected cells; host or cells: CHOnfat (CHO cells; also called CHOK1/hM1)
T1 sequence (P11229 1-460): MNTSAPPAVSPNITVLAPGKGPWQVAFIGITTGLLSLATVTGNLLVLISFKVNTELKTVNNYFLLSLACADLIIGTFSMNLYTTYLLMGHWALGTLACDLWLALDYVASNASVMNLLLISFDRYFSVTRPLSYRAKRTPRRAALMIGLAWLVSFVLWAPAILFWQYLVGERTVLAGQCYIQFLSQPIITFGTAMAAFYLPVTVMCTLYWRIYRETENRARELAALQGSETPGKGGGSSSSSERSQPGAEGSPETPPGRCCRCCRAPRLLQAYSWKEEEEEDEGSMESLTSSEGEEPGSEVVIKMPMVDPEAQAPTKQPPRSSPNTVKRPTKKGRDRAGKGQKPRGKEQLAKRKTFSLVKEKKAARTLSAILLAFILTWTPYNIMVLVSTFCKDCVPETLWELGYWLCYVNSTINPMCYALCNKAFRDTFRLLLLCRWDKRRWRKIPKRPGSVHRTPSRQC
Test: Muscarinic M1 FLIPR intracellular calcium assay for positive allosteric modulators
Assay type: cell-based
Description: The assay studies the effect of one or several concentrations of test compounds on basal or acetylcholine-stimulated Ca^2+ levels using FLIPR.
Compounds are prepared and subjected to a preincubation period of 4 min. Thereafter, a single EC20 concentration of acetylcholine is added to each well (3 nM final). The intracellular Ca^2+ level of each sample is measured and compared to an acetylcholine control to determine any modulatory activity.
Cells: CHOnfat/hM1, hM2, hM3 or hM4 cells are plated 24 hr before the assay at a density of 18,000 cells/well (100 μL) in a 384 well plate. CHOnfat/hM1 and CHOnfat/hM3 Growth Medium: 90% DMEM (Hi Glucose); 10% HI FBS; 2 mM L-glutamine; 0.1 mM NEAA; Pen-Strep; and 1 mg/ml Geneticin, are added. For M2Gqi5CHOnfat and M4Gqi5CHOnfat cells, an additional 600 ug/ml hygromycin is added.
Equipment: 384 well plate, 120 μL addition plate; 96-well Whatman 2 ml Uniplate Incubator, 37° C., 5% CO2; Skatron EMBLA-384 Plate Washer; Multimek Pipetting System; Genesis Freedom 200 System; Mosquito System; Temo Nanolitre Pipetting System; and FLIPR^384 Fluorometric Imaging Plate Reader System are used.
Buffers. Assay Buffer: Hanks Balanced Salt Solution, with 20 mM Hepes, 2.5 mM Probenecid (Sigma P-8761) first dissolved in 1 N NaOH, 1% Bovine Serum Albumin (Sigma A-9647). Dye Loading Buffer: Assay Buffer plus 1% Fetal Bovine Serum and Fluo-4AM/Pluronic Acid Mixture. 2 mM Fluo-4AM ester stock in DMSO (Molecular Probes F-14202) Concentration of 2 μM in buffer for a final concentration of 1 μM in Assay. 20% Pluronic Acid Solution stock, with concentration of 0.04% in Buffer, 0.02% in Assay.
65 μL of 2 mM Fluo-4AM are mixed with 130 μL of 20% Pluronic Acid. The resulting solution and 650 μL FBS is added to the assay buffer for a total volume of 65 mL. Positive Controls: 4-Br-A23187: 10 mM in DMSO; final concentration 10 μM. Acetylcholine: 10 mM in water, working stock at both 20 μM and 30 μM in assay buffer, final concentration of 10 μM. This is used to check the maximum stimulation of the CHOK1/hM1 cells. 20 μM (2×) acetylcholine is added in the preincubation part of the assay, and the 30 μM (3×) stock is added in the second part. (EC20)Acetylcholine: 10 mM in water, working stock of 9 nM (3×), and final concentration in assay is 3 nM. This is used after the preincubation with test compounds. Addition of the EC20 Acetylcholine to each well with a test compound will ascertain any modulator activity. 24 wells contain 3 nM Acetylcholine alone as a control.
Determining Activity of Putative Compounds:
Screening Plate Compounds are titrated in 96-well plates (columns 2-11), 100% DMSO, started at a concentration of 15 mM (150× stock concentration), and 3-fold serial dilutions using Genesis Freedom200 System. Four 96-well plates are combined into a 384-well plate using Mosquito Nanolitre Pipetting System by transferring 1 μl of serial diluted compounds to each well, and 1 mM acetylcholine (100× stock concentration) were added as a control. Using Temo, 49 μl assay buffer is added to each well of the 384-well plate right before assay.
In a 96-well Whatman 2 ml Uniplate, 9 nM Acetylcholine (3×) is pipetted into wells corresponding to the screening compounds, and into control wells. The 30 μM acetylcholine control (3×) is added into control wells, and the 3× agonist plate is transferred into a 384 well plate.
Cells are washed three times with 100 μL of buffer, leaving 30 μL of buffer in each well. Using Multimek, 30 μL of Dye Loading Buffer is added into each well and incubated at 37° C., 5% CO2 for up to one hr.
After 60 min, the cells are washed three times with 100 μL of buffer, leaving 30 μL of buffer in each well. The cell plate, screening plate, and agonist addition plates are placed on the platform in the FLIPR and the door closed. A signal test to check background fluorescence and basal fluorescence signal is performed. Laser intensity is adjusted if necessary. […]

| pEC50 (IP = inflection point calculated from FLIPR values, CHOnfat/hM1 cells, 4 min preincubation, then EC20 acetylcholine (3 nM final), read-out: IP Value) | SMILES | pEC50 |
| --- | --- | --- |
| 7.66 | O=C(N[C@H]1CCOC[C@@H]1O)c1cc(Cc2ccc(Cl)nc2)c2cccc(F)c2n1 [Example 16, 4-[(6-Chloropyridin-3-yl)methyl]-8-fluoro-N-[(3R,4S)-3-hydroxytetrahydro-2H-pyran-4-yl]quinoline-2-carboxamide] |  |
|  | COc1ccc(Cc2cc(C(=O)N[C@H]3CCOC[C@@H]3O)nc3c(F)cccc23)cn1 [Example 19, 8-Fluoro-N-[(3R,4S)-3-hydroxytetrahydro-2H-pyran-4-yl]-4-[(6-methoxypyridin-3-yl)methyl]quinoline-2-carboxamide] | 7.72 |
